Active and inactive are the calls of the source.
How the values were obtained:
[1] = biological target: T1, Voltage-gated N-type calcium channel alpha-1B subunit/Amyloid beta A4 precursor protein-binding family A member 1 (Homo sapiens, UniProt Q00975+Q02410); format: protein assay
[2] = biological target: T1, Voltage-gated N-type calcium channel alpha-1B subunit/Amyloid beta A4 precursor protein-binding family A member 1; format: protein assay; remark: listed apart in the source
[3] = biological target: Luciferin 4-monooxygenase (Photinus pyralis, UniProt P08659); test: Counter Screen for Luciferase-based Assay Positives. [Related pubchem assays: 620, 618, 411 ]
Chain of Luciferin 4-monooxygenase (P08659 whole entry): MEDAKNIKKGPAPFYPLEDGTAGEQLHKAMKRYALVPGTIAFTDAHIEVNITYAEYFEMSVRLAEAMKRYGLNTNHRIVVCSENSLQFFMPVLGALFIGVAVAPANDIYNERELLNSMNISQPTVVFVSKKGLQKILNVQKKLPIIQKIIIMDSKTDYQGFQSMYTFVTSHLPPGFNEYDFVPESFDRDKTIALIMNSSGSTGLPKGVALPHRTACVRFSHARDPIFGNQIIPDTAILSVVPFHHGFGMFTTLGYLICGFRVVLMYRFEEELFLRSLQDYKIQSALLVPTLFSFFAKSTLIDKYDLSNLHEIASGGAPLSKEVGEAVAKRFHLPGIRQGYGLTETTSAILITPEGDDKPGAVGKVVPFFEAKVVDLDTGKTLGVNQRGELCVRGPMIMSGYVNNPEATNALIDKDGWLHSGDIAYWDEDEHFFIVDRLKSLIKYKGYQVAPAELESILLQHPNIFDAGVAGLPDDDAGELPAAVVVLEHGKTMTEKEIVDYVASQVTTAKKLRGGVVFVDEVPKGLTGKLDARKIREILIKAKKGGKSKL

Bcl-2-related protein A1 = biological target: T2, Bcl-2-related protein A1 (Mus musculus, UniProt Q07440); format: functional;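 further: confirmatory dose–response counterscreen on Bfl-1, used to check hits from a UBC13 polyubiquitin inhibitor campaign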
T2 sequence (Q07440 whole entry): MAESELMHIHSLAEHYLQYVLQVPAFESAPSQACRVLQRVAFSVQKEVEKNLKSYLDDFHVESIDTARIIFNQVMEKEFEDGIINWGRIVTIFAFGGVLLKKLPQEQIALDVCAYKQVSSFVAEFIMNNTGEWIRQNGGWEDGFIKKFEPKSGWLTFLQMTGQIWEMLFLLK

[4] = Luminescence Cell-Based Dose Response HTS to Identify Inhibitors of 5'UTR Stem-Loop Driven Prion Protein mRNA Translation in H4 Neuroglioblastoma Cells. [Related pubchem assays: 1827 (Project Summary), 1813 (Primary HTS)]; format: functional
[5] = biological target: T3, Ubiquitin-conjugating enzyme E2 N (Homo sapiens, UniProt P61088); format: functional
T3 sequence (P61088 whole entry): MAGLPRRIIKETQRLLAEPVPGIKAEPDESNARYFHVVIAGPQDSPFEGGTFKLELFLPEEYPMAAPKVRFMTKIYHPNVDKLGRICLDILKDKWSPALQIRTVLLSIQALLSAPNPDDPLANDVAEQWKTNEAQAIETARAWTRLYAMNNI

[6] = inhibitors of SNCA 5'UTR-driven reporter translation, confirmation, H4 neuroglioma cells, luminescence (AID 1988); format: functional, cell-based
[7] = inhibitors of firefly luciferase expression or activity, dose response, H4 neuroglioma cells, luminescence (AID 1990); format: functional, cell-based
[8] = biological target: T3, Ubiquitin-conjugating enzyme E2 N; format: functional; remark: listed apart in the source
HT-1080 = test: cytotoxicity in HT1080 fibrosarcoma cells, cell-based, fluorescence readout (AID 620); format: functional; details: Homo sapiens
[9] = Vero E6 cell cytotoxicity, dose response, cytotoxicity control for non-replicating M. tuberculosis project, secondary assay (AID 492998); format: functional, VeroE6; details: Vero C1008
[10] = cytotoxicity in KRAS-transformed pancreatic duct cells, primary screen, cell-based, fluorescence, HTS (AID 431); format: functional; details: Homo sapiens;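 further: cell line used: HPDE-C7K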
[11] = cytotoxicity toward DRD oncogenic fibroblasts, dose response, cell-based, non-viral oncogenic, luminescence (AID 1934); format: functional; details: Homo sapiens
BJ [12] = test: cytotoxicity toward BJ-TERT fibroblasts, dose response, cell-based, RAS-independent, luminescence (AID 1933); format: functional; details: Homo sapiens
[13] = cytotoxicity in HPDE-C7 cells, cell-based, fluorescence, HTS (AID 430); format: functional; details: Homo sapiens
cells = format: functional
BJ [14] = test: cells; format: functional, cell-based; details: Homo sapiens
[15] = THP-1 cell cytotoxicity, dose response, cytotoxicity control for non-replicating M. tuberculosis project (AID 489025); format: functional
BJ [16] = test: cytotoxicity toward BJ-TERT-LT-ST fibroblasts, dose response, cell-based, RAS-independent, luminescence (AID 1935); format: functional; details: Homo sapiens;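 further: BJ fibroblasts immortalized with TERT plus LT and ST oncogenes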
[17] = HepG2 cell cytotoxicity, dose response, cytotoxicity control for non-replicating M. tuberculosis project (AID 489018); format: functional; details: Mycobacterium tuberculosis
[18] = biological target: T4, Rac GTPase-activating protein 1 (Homo sapiens, UniProt Q9H0H5); test: MgcRacGAP GTPase-activating activity inhibitors, confirmation, biochemical, ADP Hunter fluorescence, primary and confirmatory (AID 624330); format: functional
T4 sequence (Q9H0H5 whole entry): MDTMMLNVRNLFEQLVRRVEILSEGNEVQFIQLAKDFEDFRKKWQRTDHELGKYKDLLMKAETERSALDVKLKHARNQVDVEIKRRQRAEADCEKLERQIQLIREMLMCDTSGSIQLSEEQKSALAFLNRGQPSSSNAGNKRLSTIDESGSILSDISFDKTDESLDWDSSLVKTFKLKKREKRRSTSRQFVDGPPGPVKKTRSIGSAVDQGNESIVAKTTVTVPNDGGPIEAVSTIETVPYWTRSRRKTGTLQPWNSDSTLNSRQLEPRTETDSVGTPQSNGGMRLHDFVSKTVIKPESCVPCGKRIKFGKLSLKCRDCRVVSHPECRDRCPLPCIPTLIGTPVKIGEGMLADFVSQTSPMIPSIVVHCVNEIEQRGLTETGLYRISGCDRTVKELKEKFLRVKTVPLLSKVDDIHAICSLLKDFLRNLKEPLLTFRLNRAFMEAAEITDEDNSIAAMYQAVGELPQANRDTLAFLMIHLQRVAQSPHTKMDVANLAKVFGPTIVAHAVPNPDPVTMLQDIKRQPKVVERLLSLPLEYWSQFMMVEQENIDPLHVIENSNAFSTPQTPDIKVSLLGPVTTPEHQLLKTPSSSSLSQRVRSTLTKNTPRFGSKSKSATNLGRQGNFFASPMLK

Cytochrome P450 3A4 = Cytochrome P450 3A4 (Homo sapiens, UniProt P08684);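 further: CYP3A4 tested as one member of a cytochrome P450 panel screen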
Chain of Cytochrome P450 3A4 (P08684 whole entry): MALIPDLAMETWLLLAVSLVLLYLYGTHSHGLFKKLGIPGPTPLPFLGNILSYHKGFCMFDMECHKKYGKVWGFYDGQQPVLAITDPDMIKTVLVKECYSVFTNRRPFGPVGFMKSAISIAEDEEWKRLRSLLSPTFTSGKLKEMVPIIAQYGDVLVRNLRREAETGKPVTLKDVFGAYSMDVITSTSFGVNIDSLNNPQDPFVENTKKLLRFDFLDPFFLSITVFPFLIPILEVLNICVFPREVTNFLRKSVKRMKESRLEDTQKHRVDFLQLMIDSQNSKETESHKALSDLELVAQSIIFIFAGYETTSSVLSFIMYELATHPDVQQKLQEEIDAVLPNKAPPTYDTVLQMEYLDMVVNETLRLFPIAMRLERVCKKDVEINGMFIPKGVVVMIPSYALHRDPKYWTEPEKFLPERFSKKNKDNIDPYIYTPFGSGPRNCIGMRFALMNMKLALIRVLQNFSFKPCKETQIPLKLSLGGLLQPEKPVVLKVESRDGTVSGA

HeLa = test: HeLa cell cytotoxicity, dose response, cytotoxicity control for MITF activator project, CellTiter-Glo luminescence, cherry-pick samples (AID 540259); format: functional, cell-based; details: Homo sapiens

T1 sequence (Q00975 whole entry): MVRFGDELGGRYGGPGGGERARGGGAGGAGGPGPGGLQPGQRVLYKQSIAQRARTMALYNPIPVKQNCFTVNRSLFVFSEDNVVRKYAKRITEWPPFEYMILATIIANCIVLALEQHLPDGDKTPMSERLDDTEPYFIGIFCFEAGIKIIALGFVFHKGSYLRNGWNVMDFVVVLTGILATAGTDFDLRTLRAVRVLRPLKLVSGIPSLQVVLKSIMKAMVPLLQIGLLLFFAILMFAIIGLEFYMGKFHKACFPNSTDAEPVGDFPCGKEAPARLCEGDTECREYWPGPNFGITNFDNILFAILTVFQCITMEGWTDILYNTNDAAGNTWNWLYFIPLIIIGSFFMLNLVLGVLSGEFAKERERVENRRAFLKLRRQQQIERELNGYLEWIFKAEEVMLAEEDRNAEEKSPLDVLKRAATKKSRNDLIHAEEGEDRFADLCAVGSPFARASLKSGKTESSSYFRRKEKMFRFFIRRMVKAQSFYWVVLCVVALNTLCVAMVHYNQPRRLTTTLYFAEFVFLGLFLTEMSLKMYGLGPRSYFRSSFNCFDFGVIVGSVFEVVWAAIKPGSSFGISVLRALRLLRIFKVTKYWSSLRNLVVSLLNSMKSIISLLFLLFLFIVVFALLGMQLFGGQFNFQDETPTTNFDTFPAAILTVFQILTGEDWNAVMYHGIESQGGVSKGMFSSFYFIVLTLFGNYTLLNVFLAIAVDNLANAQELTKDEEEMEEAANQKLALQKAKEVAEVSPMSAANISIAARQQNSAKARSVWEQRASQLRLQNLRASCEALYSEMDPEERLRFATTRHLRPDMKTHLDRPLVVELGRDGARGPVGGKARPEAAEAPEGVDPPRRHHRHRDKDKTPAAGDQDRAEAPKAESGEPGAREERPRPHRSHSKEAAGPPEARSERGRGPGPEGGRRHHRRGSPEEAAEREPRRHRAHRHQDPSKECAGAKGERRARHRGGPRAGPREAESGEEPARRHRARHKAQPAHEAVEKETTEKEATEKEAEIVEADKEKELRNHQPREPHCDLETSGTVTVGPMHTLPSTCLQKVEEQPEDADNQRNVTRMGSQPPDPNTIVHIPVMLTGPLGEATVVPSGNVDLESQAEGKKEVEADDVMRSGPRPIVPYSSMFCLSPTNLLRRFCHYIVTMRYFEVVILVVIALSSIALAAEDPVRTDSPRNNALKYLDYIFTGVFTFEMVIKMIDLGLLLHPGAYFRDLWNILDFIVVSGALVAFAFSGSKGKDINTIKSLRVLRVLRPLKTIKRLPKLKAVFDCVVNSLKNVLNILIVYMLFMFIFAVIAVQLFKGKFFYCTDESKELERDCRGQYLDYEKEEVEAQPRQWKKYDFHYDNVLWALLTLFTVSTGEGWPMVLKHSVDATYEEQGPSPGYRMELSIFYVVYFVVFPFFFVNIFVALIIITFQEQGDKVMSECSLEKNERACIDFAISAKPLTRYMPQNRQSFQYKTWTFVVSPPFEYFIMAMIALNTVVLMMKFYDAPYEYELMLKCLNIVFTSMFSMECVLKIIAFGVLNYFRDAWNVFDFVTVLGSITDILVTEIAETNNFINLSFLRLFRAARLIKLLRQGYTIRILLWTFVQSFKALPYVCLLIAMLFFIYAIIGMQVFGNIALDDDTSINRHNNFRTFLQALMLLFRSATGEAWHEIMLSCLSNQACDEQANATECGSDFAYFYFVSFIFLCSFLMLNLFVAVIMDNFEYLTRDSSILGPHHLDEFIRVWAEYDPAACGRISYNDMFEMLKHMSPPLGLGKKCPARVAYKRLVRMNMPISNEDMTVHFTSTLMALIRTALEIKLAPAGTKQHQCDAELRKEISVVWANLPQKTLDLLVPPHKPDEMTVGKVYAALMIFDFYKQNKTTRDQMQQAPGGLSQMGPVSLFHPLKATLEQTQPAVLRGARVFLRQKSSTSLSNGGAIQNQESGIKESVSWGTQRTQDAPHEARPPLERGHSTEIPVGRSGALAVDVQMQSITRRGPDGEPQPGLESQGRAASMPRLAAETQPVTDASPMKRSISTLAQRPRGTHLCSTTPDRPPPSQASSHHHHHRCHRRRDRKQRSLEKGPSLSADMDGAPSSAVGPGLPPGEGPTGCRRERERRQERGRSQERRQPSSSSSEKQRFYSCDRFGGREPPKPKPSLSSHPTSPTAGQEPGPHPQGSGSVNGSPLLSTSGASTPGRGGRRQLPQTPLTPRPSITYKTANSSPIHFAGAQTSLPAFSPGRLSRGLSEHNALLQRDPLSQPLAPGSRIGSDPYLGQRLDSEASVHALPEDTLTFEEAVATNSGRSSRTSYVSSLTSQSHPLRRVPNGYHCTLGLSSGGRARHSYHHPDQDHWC
T1 sequence (Q02410 whole entry): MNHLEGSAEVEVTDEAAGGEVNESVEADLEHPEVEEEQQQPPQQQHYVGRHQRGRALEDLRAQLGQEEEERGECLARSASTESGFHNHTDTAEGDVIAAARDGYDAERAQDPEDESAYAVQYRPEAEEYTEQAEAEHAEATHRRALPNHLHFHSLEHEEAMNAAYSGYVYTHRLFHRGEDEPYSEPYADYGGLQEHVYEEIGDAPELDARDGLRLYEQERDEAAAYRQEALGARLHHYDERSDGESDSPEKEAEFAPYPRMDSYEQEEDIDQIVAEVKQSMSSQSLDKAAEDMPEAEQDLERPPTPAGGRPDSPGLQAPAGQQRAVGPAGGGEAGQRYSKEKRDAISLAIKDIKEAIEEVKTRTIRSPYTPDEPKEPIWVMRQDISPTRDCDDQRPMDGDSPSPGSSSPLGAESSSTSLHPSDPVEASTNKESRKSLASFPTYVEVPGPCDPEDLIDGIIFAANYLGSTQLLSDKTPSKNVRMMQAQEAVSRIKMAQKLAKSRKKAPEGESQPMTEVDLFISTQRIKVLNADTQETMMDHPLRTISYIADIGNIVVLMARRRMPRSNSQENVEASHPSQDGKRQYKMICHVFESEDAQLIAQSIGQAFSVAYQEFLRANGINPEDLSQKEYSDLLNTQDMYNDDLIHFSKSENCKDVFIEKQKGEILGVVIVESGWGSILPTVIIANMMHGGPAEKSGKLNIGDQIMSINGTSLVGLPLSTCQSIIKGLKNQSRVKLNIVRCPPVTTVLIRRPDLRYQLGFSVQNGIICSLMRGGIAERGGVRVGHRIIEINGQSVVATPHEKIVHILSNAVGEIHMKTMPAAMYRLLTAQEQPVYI

SMILES: CCC(=O)Nc1ccc(Nc2nc(Cl)nc(Nc3ccc(NC(=O)CC)cc3)n2)cc1
- IC50 [1]: 12.8 µM (active)
- IC50 [2]: > 50 µM (inactive)

SMILES: COc1ccc(C(=O)Nn2c(SCC(=O)NCc3ccccc3)nc3ccccc3c2=O)cc1
- EC50 [3]: 2.51 µM (active)
- IC50 (Bcl-2-related protein A1): > 20 µM (inactive)
- EC50 [4]: 9.71 µM (active)
- IC50 [5]: > 20 µM (inactive)
- EC50 [6]: 403 nM (inconclusive)
- EC50 [7]: 9.49 µM (active)
- IC50 [8]: 19.4 µM (active)
- EC50 (HT-1080): > 50 µM (not active)

SMILES: O=C1CSC(=S)N1Cc1cccnc1
- CC50 [9]: 4.93 µM (active)
- EC50 [10]: 3.72 µM (active)
- EC50 [11]: 9.9 µM (active)
- EC50 (BJ [12]): 5.09 µM (active)
- EC50 [13]: 5.21 µM (active)
- IC50 (cells): 13.2 µM (active)
- EC50 (BJ [14]): 21.1 µM (active)
- CC50 [15]: 3.69 µM (active)
- EC50 (BJ [16]): > 150 µM (inconclusive)

SMILES: COC(=O)c1ccc(C(=O)NC2CC(C)(C)Cc3c2cnn3-c2ccc(F)cc2)nc1 (stereo unspecified)
- CC50 [9]: 12.2 µM (active)
- IC50 (cells): 6.8 µM (active)
- CC50 [15]: 16.8 µM (active)
- CC50 [17]: > 20 µM (active)

SMILES: C#CCOCCOCCOCCNc1nc(N2CCN(C(=O)[C@H](CCCCN)n3cc([C@@H](N)CC(C)C)nn3)CC2)nc(N2CCN(C(=O)[C@H](CCCCN)n3cc([C@@H](N)CC(C)C)nn3)CC2)n1
- IC50 (Bcl-2-related protein A1): > 20 µM (inactive)
- IC50 [18]: 190 µM (active)
- IC50 [5]: 14 µM (active)
- IC50 [8]: 14.4 µM (active)

SMILES: Cc1s/c(=N\C(=O)c2ccco2)n(C)c1-c1ccccc1
- AC50 (Cytochrome P450 3A4): inconclusive

SMILES: CCN(CC)S(=O)(=O)c1cccc(C(=O)N/N=C(\C)c2cccs2)c1
- AC50 (HeLa): 50.9 µM (active)

SMILES: O=C(Cc1cccc2ccccc12)N/N=C/c1ccc(Sc2nc3ccccc3s2)o1
- AC50 (Cytochrome P450 3A4): inconclusive

SMILES: CC1CCN(c2ccc(/C=N/n3nnnc3N)cc2[N+](=O)[O-])CC1
- AC50 (Cytochrome P450 3A4): inconclusive

— ChEMBL document CHEMBL1201862, “PubChem BioAssay data set” (2004)
